pIC50: −log10 of the molar value. Active and inactive are the calls of the source. The calls are words filed in the database; no cut-off is given here.
Legend:
Mus musculus [1] = assay: Antiinflammatory activity in CD-1 mouse assessed as inhibition of TPA-induced ear edema at 0.1 to 1.0 uM applied topically 10 mins before compound challenge measured after 4 hrs; type: functional, organism-based
U-251 = assay: Cytotoxicity against human U251 cells after 48 hrs by SRB assay; type: functional, cell-based; settings: U-251, 48 h
SK-LU-1 = assay: Cytotoxicity against human SKLU1 cells after 48 hrs by SRB assay; type: functional, cell-based; settings: SK-LU-1, 48 h
Mus musculus [2] = assay: Antiinflammatory activity in CD-1 mouse assessed as inhibition of TPA-induced ear edema applied topically 10 mins before compound challenge measured after 4 hrs; type: functional, organism-based; settings: CD-1, Ear

`COc1ccc2c(c1)c(CC(=O)O)c(C)n2C(=O)c1ccc(Cl)cc1` was tested, and the inhibition (Mus musculus [1]) was “Active”.
For `C[C@]12C[C@H](c3ccoc3)OC(=O)[C@@H]1[C@H](O)C[C@@]13COC(=O)C1=CC[C@H]1O[C@]132` [TEHUANINE F], the pIC50 (U-251) was 4.38 and the pIC50 (SK-LU-1) was 4.41.
For `C[C@]12C[C@H](c3ccoc3)OC(=O)[C@@]1(O)CC[C@@]13COC(=O)C1=CC[C@H]1O[C@]132` [TEHUANINE G], the IC50 (Mus musculus [2]) was 0.24 µmol/ear.

— ChEMBL document CHEMBL2046426, “Neo-clerodane diterpenes from Salvia herbacea” (J Nat Prod, 2012)
